Data taken from PubChem BioAssay (NCI).
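Five concentrations, 48 hours, 96-well plates. Abbreviation: GI50, concentration required for 50% inhibition of growth. TGI: concentration producing complete growth inhibition.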

Key:
Assay in all cases: inhibition of tumour cell growth, NCI panel, 48 h
[1] = system: ACHN renal
[2] = system: SN12C renal
[3] = system: SNB-19 CNS
[4] = system: LOX IMVI melanoma
[5] = system: HCT-116 colon
[6] = system: MALME-3M melanoma
[7] = system: T-47D breast
[8] = system: UO-31 renal
[9] = system: M14 melanoma
[10] = system: K-562 leukemia

Structure (SMILES) | TGI [1] | TGI [2] | TGI [3] | TGI [4] | TGI [5] | TGI [6] | TGI [7] | TGI [8] | TGI [9] | GI50 [1] | GI50 [2] | GI50 [3] | GI50 [4] | GI50 [10] | TGI [10] | GI50 [5] | GI50 [7] | GI50 [8] | GI50 [9] | GI50 [6]
CN(C)c1ncnc2c1ncn2CCn1cnc2c(N(C)C)ncnc21 | > 100 µM | > 100 µM | > 100 µM | > 100 µM | > 100 µM | > 100 µM | > 100 µM | > 100 µM | > 100 µM | – | – | – | – | – | – | – | – | – | – | –
COc1ccc(Cn2c(N)c(S(=O)(=O)c3ccc(Cl)cc3)c3nc(C#N)c(C#N)nc32)cc1 | > 50 µM | 17.9 µM | > 50 µM | 38.3 µM | > 50 µM | – | > 50 µM | > 50 µM | > 50 µM | 6.22 µM | 1.45 µM | 18 µM | 8.27 µM | > 50 µM | > 50 µM | > 50 µM | > 50 µM | 32.6 µM | 24.8 µM | –
COc1ccc(-c2nnc(N3CCN(C(=O)CN4CCN(c5ccccc5)CC4)CC3)nc2-c2ccc(OC)cc2)cc1 | 21.7 µM | > 100 µM | 77.3 µM | > 100 µM | > 100 µM | > 100 µM | – | > 100 µM | > 100 µM | 3.92 µM | 2.85 µM | 12.8 µM | 5.78 µM | 2.53 µM | > 100 µM | 3.19 µM | – | 1.91 µM | 4.84 µM | 2.29 µM
C[Si](C)(C)/C(Br)=C\CCN1C(=O)CCC1=O | > 100 µM | > 100 µM | > 100 µM | > 100 µM | > 100 µM | > 100 µM | – | > 100 µM | > 100 µM | – | – | – | – | – | > 100 µM | – | – | – | – | –
CC(C)(C)[Si](C)(C)OC1C(=O)C[C@H]2CCCC[C@@H]12 (stereo not given in full) | > 100 µM | > 100 µM | > 100 µM | > 100 µM | > 100 µM | > 100 µM | – | > 100 µM | > 100 µM | – | – | – | – | – | > 100 µM | – | – | – | – | –
COC(=O)C1=C(C(=O)OC)C2=S(SC3=C2CCCC3)S1 (stereo not given) | > 100 µM | > 100 µM | > 100 µM | 7.05 µM | – | 71.1 µM | – | > 100 µM | > 100 µM | – | – | – | – | – | 25.8 µM | – | – | – | – | –
[N-]=[N+]=N/C1=C/CCCCC(=O)C1 | – | > 100 µM | > 100 µM | > 100 µM | – | > 100 µM | – | > 100 µM | > 100 µM | – | – | – | – | – | > 100 µM | – | – | – | – | –
O=c1[nH]c2ccc(O)cc2o1 | > 100 µM | > 100 µM | > 100 µM | – | > 100 µM | > 100 µM | > 100 µM | > 100 µM | > 100 µM | – | – | – | – | – | > 100 µM | – | – | – | – | –
BrCc1cccc(C[P+](c2ccccc2)(c2ccccc2)c2ccccc2)c1 | > 100 µM | > 100 µM | > 100 µM | > 100 µM | > 100 µM | > 100 µM | > 100 µM | > 100 µM | – | > 100 µM | 18.4 µM | 12.1 µM | 14 µM | 4.26 µM | > 100 µM | 6.02 µM | 3.99 µM | > 100 µM | – | 82.8 µM
Cc1nc2cc(Nc3nc(Nc4ccc(F)cc4)nc(-c4cccs4)n3)ccc2n1Cc1ccccc1 | 59.9 µM | 58.1 µM | > 100 µM | 5.85 µM | 13.3 µM | – | 9.33 µM | 17.5 µM | 24.6 µM | 3.86 µM | 5.73 µM | 5.29 µM | 2.36 µM | 3.07 µM | 20.6 µM | 3.35 µM | 2.6 µM | 3.75 µM | 5.42 µM | –
O=C1c2cc3c(cc2-c2c1c1cc(Cl)c(Cl)cc1c(=O)n2C[C@H](O)CO)OCO3 | 0.0128 µM | 0.122 µM | 2.79 µM | 0.0117 µM | – | 0.156 µM | 0.0334 µM | – | – | < 0.01 µM | < 0.01 µM | < 0.01 µM | < 0.01 µM | < 0.01 µM | > 100 µM | – | < 0.01 µM | – | – | 0.0154 µM
Cc1ccc2c(C3C(C#N)=C(N)Oc4cc5ccccc5cc43)cc(=O)oc2c1 (stereo not given) | > 100 µM | > 100 µM | > 100 µM | > 100 µM | 32.8 µM | – | 64 µM | > 100 µM | 21.3 µM | 4.54 µM | 5.27 µM | 1.79 µM | 3.17 µM | 0.394 µM | > 100 µM | 0.531 µM | 1.49 µM | 7.68 µM | 0.697 µM | –
O=C1CCC(=O)c2c1c(O)c1ccncc1c2O | 28.6 µM | 31.6 µM | 89.2 µM | 27.4 µM | 27.9 µM | 29.4 µM | – | 31.4 µM | 28.9 µM | – | – | – | – | – | 44 µM | – | – | – | – | –
CC(=O)N1CCC(=O)/C(=C/c2ccccc2)C1 | 56.8 µM | 37.6 µM | > 100 µM | 32.9 µM | 32.2 µM | > 100 µM | – | > 100 µM | > 100 µM | – | – | – | – | – | > 100 µM | – | – | – | – | –
COC12OCCN(C)C1=CC(=O)C1=NNC(C)C12 (stereo not given) | – | > 100 µM | – | > 100 µM | > 100 µM | – | – | > 100 µM | > 100 µM | – | – | – | – | – | > 100 µM | – | – | – | – | –
CSc1ccccc1C#C/C=C\C#Cc1ccccc1N | > 100 µM | 27.7 µM | > 100 µM | 25.2 µM | 16.9 µM | – | 38.6 µM | > 100 µM | 20.1 µM | 20.1 µM | 8.93 µM | 22.2 µM | 9.52 µM | 5.08 µM | > 100 µM | 4.58 µM | 17.6 µM | 17 µM | 5.85 µM | –
CN(C)CCC(=O)C(=Cc1ccc(O)cc1)C(=O)CCN(C)C | > 100 µM | > 100 µM | > 100 µM | > 100 µM | > 100 µM | > 100 µM | > 100 µM | 69.8 µM | > 100 µM | > 100 µM | > 100 µM | > 100 µM | 79.6 µM | – | – | 44.8 µM | 47.7 µM | 25.2 µM | > 100 µM | > 100 µM
